Publication PMC11839852, “Preclinical comparison of (radio)lanthanides using mass spectrometry and nuclear imaging techniques: biodistribution of lanthanide-based tumor-targeting agents and lanthanides in ionic form” (European Journal of Nuclear Medicine and Molecular Imaging, 2024)
Marks after values point to notes of the source that are not given here. Each block holds one compound with its values, some of them ahead of it.

Legend:
AR42J tumor cells = experiment: In vitro cell uptake of lanthanide chloride salts; type: cell-based, rat
Experimental: (§1) A mixture of equal molar amounts of the lanthanide chloride salts (100 nM stock solutions of ^natLuCl3, ^natTbCl3, ^natGdCl3, and ^natEuCl3, diluted in saline with an adjusted pH value to 3.5‒4.0) was prepared to obtain a final concentration of 10 pmol/mL (2.5 pmol/mL per lanthanide salt) and tested with AR42J, PC-3 PIP and KB tumor cells according to the same protocol as described for the Ln-labeled biomolecules (Supplementary Material). Analogous in vitro cell uptake studies were also performed with lanthanide metal complexes of diethylenetriaminepentaacetic acid (DTPA, Sigma Aldrich Chemie, Steinheim, Germany) to obtain a final concentration of 10 pmol/mL (2.5 pmol/mL per lanthanide complex) (Supplementary Material).
(§2) Cell uptake studies were performed in triplicate in 3‒6 independent experiments and the results presented as the average ± standard deviation (SD). Data were normalized to the values measured for the ^175Lu-labeled tumor targeting agent or [^175Lu]LuCl3, which were set as 100% and zero was defined as 0%. Statistical significance of the normalized data was assessed for the comparison of the values obtained for terbium, gadolinium and europium analogues with those obtained for the lutetium counterparts by applying one-way ANOVA with the Dunnett’s post-test using GraphPad Prism software (version 8). A p-value of < 0.05 was considered statistically significant.
(§3) Methods: The same experimental setting as described for Ln-labeled biomolecules was applied to perform uptake and internalization studies with the lanthanide salts (LnCl3; Ln = ^natLu, ^natTb, ^natGd and ^natEu). The applied solution was a mixture of the four lanthanide salts yielding a final concentration of 0.4 µM. Of these mixtures, 25 μL were added to the corresponding well with tumor cells. The cells were incubated for 1 h and 4 h, respectively, at 37 °C and 5% CO2. After incubation, the tumor cells were treated as described for the Ln-labeled biomolecules and processed for the measurement with ICP-MS.

PC-3 PIP tumor cells = experiment: In vitro cell uptake of lanthanide chloride salts; type: cell-based, human; conditions: both incubation times
Experimental: as §1, §2, §3

[1] = tested on: non-tumor-bearing immunocompetent FVB mice; experiment: Biodistribution of lanthanide chloride salts LnCl3 (multiplexed ICP-MS); type: in vivo; conditions: for Tissue uptake: Blood / Tissue uptake: Bone / Tissue uptake: Brain / Tissue uptake: Heart / Tissue uptake: Intestines / Tissue uptake: Kidneys / Tissue uptake: Liver / Tissue uptake: Lung / Tissue uptake: Muscle / Tissue uptake: Pancreas / Tissue uptake: Salivary glands / Tissue uptake: Spleen / Tissue uptake: Stomach: non-tumor-bearing mice
[2] = 24 h p.i., estimated ratios (organ <0.5% ID/g)
[3] = 96 h p.i., estimated ratios (organ <0.5% ID/g)

Organ ratios: Blood-to-bone ([1]; 1 h p.i.): 0.37 ± 0.01
Organ ratios: Blood-to-liver ([1]; 1 h p.i.): 0.14 ± 0.02
Organ ratios: Liver-to-bone ([1]; 1 h p.i.): 2.6 ± 0.4
Tissue uptake: Blood ([1]; 1 h p.i.): 4.9 ± 0.3 % ID/g
Tissue uptake: Bone ([1]; 1 h p.i.): 13 ± 1 % ID/g
Tissue uptake: Brain ([1]; 1 h p.i.): 1.0 ± 0.6 % ID/g
Tissue uptake: Heart ([1]; 1 h p.i.): 5.0 ± 1.7 % ID/g
Tissue uptake: Intestines ([1]; 1 h p.i.): 2.5 ± 0.8 % ID/g
Tissue uptake: Kidneys ([1]; 1 h p.i.): 8.0 ± 2.0 % ID/g
Tissue uptake: Liver ([1]; 1 h p.i.): 34 ± 4 % ID/g
Tissue uptake: Lung ([1]; 1 h p.i.): 4.8 ± 0.4 % ID/g
Tissue uptake: Muscle ([1]; 1 h p.i.): 1.6 ± 0.6 % ID/g
Tissue uptake: Pancreas ([1]; 1 h p.i.): 2.2 ± 0.4 % ID/g
Tissue uptake: Salivary glands ([1]; 1 h p.i.): 2.8 ± 1.3 % ID/g
Tissue uptake: Spleen ([1]; 1 h p.i.): 6.3 ± 0.9 % ID/g
Tissue uptake: Stomach ([1]; 1 h p.i.): 6.2 ± 1.7 % ID/g
Organ ratios: Liver-to-bone ([1]; 24 h p.i.): 2.2 ± 0.5
Organ ratios: Blood-to-bone [1, 2]: <0.03^*
Organ ratios: Blood-to-liver [1, 2]: <0.02^*
Tissue uptake: Blood ([1]; 24 h p.i.): <0.5 % ID/g
Tissue uptake: Bone ([1]; 24 h p.i.): 14 ± 2 % ID/g
Tissue uptake: Brain ([1]; 24 h p.i.): <0.5 % ID/g
Tissue uptake: Heart ([1]; 24 h p.i.): 1.2 ± 0.1 % ID/g
Tissue uptake: Intestines ([1]; 24 h p.i.): 0.71 ± 0.04 % ID/g
Tissue uptake: Kidneys ([1]; 24 h p.i.): 4.0 ± 0.9 % ID/g
Tissue uptake: Lung ([1]; 24 h p.i.): 1.3 ± 0.1 % ID/g
Tissue uptake: Muscle ([1]; 24 h p.i.): 1.1 ± 0.8 % ID/g
Tissue uptake: Pancreas ([1]; 24 h p.i.): 0.61 ± 0.11 % ID/g
Tissue uptake: Salivary glands ([1]; 24 h p.i.): 0.77 ± 0.16 % ID/g
Tissue uptake: Spleen ([1]; 24 h p.i.): 5.7 ± 1.1 % ID/g
Tissue uptake: Stomach ([1]; 24 h p.i.): 2.6 ± 0.1 % ID/g
Tissue uptake: Liver ([1]; 24 h p.i., listed as gadolinium): 31 ± 6 % ID/g
Tissue uptake: Liver ([1]; 24 h p.i., listed as natGd): ~ 31 % ID/g
Organ ratios: Liver-to-bone ([1]; 96 h p.i.): 1.1 ± 0.2
Organ ratios: Blood-to-bone [1, 3]: <0.03^*
Organ ratios: Blood-to-liver [1, 3]: <0.03^*
Tissue uptake: Blood ([1]; 96 h p.i.): <0.5 % ID/g
Tissue uptake: Bone ([1]; 96 h p.i.): 17 ± 3 % ID/g
Tissue uptake: Brain ([1]; 96 h p.i.): <0.5 % ID/g
Tissue uptake: Heart ([1]; 96 h p.i.): 1.2 ± 0.1 % ID/g
Tissue uptake: Intestines ([1]; 96 h p.i.): 0.66 ± 0.07 % ID/g
Tissue uptake: Kidneys ([1]; 96 h p.i.): 2.0 ± 0.1 % ID/g
Tissue uptake: Liver ([1]; 96 h p.i.): 18 ± 1 % ID/g
Tissue uptake: Lung ([1]; 96 h p.i.): 1.1 ± 0.2 % ID/g
Tissue uptake: Muscle ([1]; 96 h p.i.): 0.51 ± 0.12 % ID/g
Tissue uptake: Pancreas ([1]; 96 h p.i.): 0.53 ± 0.10 % ID/g
Tissue uptake: Salivary glands ([1]; 96 h p.i.): 0.60 ± 0.08 % ID/g
Tissue uptake: Spleen ([1]; 96 h p.i.): 3.6 ± 0.3 % ID/g
Tissue uptake: Stomach ([1]; 96 h p.i.): 3.1 ± 0.8 % ID/g
Structure (SMILES): [Cl][Gd]([Cl])[Cl] [[^157Gd]GdCl3]
Detected fraction after acid-wash compared with lutetium (AR42J tumor cells; 1 h incubation): significantly lower
Fraction retained after acid-wash compared with lutetium (PC-3 PIP tumor cells): higher

Organ ratios: Blood-to-bone ([1]; 1 h p.i.): 0.40 ± 0.05
Organ ratios: Blood-to-liver ([1]; 1 h p.i.): 0.14 ± 0.02
Organ ratios: Liver-to-bone ([1]; 1 h p.i.): 3.0 ± 0.4
Tissue uptake: Blood ([1]; 1 h p.i.): 5.5 ± 0.6 % ID/g
Tissue uptake: Bone ([1]; 1 h p.i.): 14 ± 2 % ID/g
Tissue uptake: Brain ([1]; 1 h p.i.): 1.2 ± 0.9 % ID/g
Tissue uptake: Heart ([1]; 1 h p.i.): 5.3 ± 2.1 % ID/g
Tissue uptake: Intestines ([1]; 1 h p.i.): 2.6 ± 0.9 % ID/g
Tissue uptake: Kidneys ([1]; 1 h p.i.): 8.1 ± 2.1 % ID/g
Tissue uptake: Liver ([1]; 1 h p.i.): 41 ± 5 % ID/g
Tissue uptake: Lung ([1]; 1 h p.i.): 4.8 ± 1.1 % ID/g
Tissue uptake: Muscle ([1]; 1 h p.i.): 1.7 ± 1.0 % ID/g
Tissue uptake: Pancreas ([1]; 1 h p.i.): 2.2 ± 1.0 % ID/g
Tissue uptake: Salivary glands ([1]; 1 h p.i.): 2.7 ± 1.7 % ID/g
Tissue uptake: Spleen ([1]; 1 h p.i.): 6.9 ± 1.6 % ID/g
Tissue uptake: Stomach ([1]; 1 h p.i.): 6.0 ± 2.3 % ID/g
Organ ratios: Liver-to-bone ([1]; 24 h p.i.): 2.7 ± 0.8
Organ ratios: Blood-to-bone [1, 2]: <0.04^*
Organ ratios: Blood-to-liver [1, 2]: <0.01^*
Tissue uptake: Blood ([1]; 24 h p.i.): <0.5 % ID/g
Tissue uptake: Bone ([1]; 24 h p.i.): 14 ± 3 % ID/g
Tissue uptake: Brain ([1]; 24 h p.i.): <0.5 % ID/g
Tissue uptake: Heart ([1]; 24 h p.i.): 1.0 ± 0.1 % ID/g
Tissue uptake: Intestines ([1]; 24 h p.i.): 0.58 ± 0.06 % ID/g
Tissue uptake: Kidneys ([1]; 24 h p.i.): 3.8 ± 0.9 % ID/g
Tissue uptake: Lung ([1]; 24 h p.i.): 1.1 ± 0.2 % ID/g
Tissue uptake: Muscle ([1]; 24 h p.i.): <0.5 % ID/g
Tissue uptake: Pancreas ([1]; 24 h p.i.): <0.5 % ID/g
Tissue uptake: Salivary glands ([1]; 24 h p.i.): 0.53 ± 0.17 % ID/g
Tissue uptake: Spleen ([1]; 24 h p.i.): 5.6 ± 1.1 % ID/g
Tissue uptake: Stomach ([1]; 24 h p.i.): 1.9 ± 0.5 % ID/g
Tissue uptake: Liver ([1]; 24 h p.i., listed as europium): 37 ± 7 % ID/g
Tissue uptake: Liver ([1]; 24 h p.i., listed as natEu): ~ 37 % ID/g
Organ ratios: Liver-to-bone ([1]; 96 h p.i.): 1.3 ± 0.2
Organ ratios: Blood-to-bone [1, 3]: <0.03^*
Organ ratios: Blood-to-liver [1, 3]: <0.02^*
Tissue uptake: Blood ([1]; 96 h p.i.): <0.5 % ID/g
Tissue uptake: Bone ([1]; 96 h p.i.): 18 ± 3 % ID/g
Tissue uptake: Brain ([1]; 96 h p.i.): <0.5 % ID/g
Tissue uptake: Heart ([1]; 96 h p.i.): 0.83 ± 0.05 % ID/g
Tissue uptake: Intestines ([1]; 96 h p.i.): 0.53 ± 0.04 % ID/g
Tissue uptake: Kidneys ([1]; 96 h p.i.): 1.9 ± 0.1 % ID/g
Tissue uptake: Liver ([1]; 96 h p.i.): 23 ± 1 % ID/g
Tissue uptake: Lung ([1]; 96 h p.i.): 0.88 ± 0.15 % ID/g
Tissue uptake: Muscle ([1]; 96 h p.i.): <0.5 % ID/g
Tissue uptake: Pancreas ([1]; 96 h p.i.): <0.5 % ID/g
Tissue uptake: Salivary glands ([1]; 96 h p.i.): <0.5 % ID/g
Tissue uptake: Spleen ([1]; 96 h p.i.): 3.5 ± 0.3 % ID/g
Tissue uptake: Stomach ([1]; 96 h p.i.): 2.3 ± 0.3 % ID/g
Structure (SMILES): [Cl-].[Cl-].[Cl-].[Eu+3] [[^153Eu]EuCl3]
Lanthanide uptake compared with [175Lu]LuCl3 (AR42J tumor cells): lower uptake
